According to paper PMC12221113, “Deferasirox Derivatives as Inhibitors of Kallikrein‐Related Peptidases Associated to Neurodegenerative Diseases” (Chemmedchem, 2025):

Assays:
KLK5 = target: T1, KLK5 (Homo sapiens, UniProt Q9Y337); test: Selectivity screening, KLK5; settings: read-out: percentage of inhibition KLK5
T1 sequence (Q9Y337 67-293 limits assumed): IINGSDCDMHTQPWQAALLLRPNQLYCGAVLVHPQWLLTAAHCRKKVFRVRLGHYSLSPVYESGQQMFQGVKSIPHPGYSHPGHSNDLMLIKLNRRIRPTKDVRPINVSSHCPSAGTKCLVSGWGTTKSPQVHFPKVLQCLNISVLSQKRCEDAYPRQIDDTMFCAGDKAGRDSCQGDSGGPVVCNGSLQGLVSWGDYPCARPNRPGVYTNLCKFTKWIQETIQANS
Method: (§1) All enzyme stocks were stored at −20 °C and purchased from R&D Systems as proenzymes (KLK6, KLK8, KLK13) or as mature and active forms (KLK5). Activation of KLK6, KLK8, and KLK13 is performed in optimized buffers. The activation reaction is initiated by Lysyl‐Endopeptidase at 2.5 mU mL^−1 (Wako Bioproducts). The activation reaction is stopped by diluting the enzyme to 0.5 μg mL^−1 in assay buffer (50 mM Tris, 1 M Citrate, 0.05% w/v Brij‐35, pH 8) to obtain an active enzyme stock. KLK1 was purchased from R & D Systems as pro‐KLK1. Activation of KLK1 is performed in 50 mM Tris‐HCl, 10 mM CaCl2, 150 mM NaCl, 0.05% Brij‐35, pH 7.5. The activation reaction is initiated by bacterial thermolysin at 0.4 μg mL^−1 (Sigma‐Aldrich) and stopped by addition of 100 mM EDTA (Sigma‐Aldrich) to obtain an active KLK1 stock at the same concentration of 100 μg mL^−1. The activation reactions for KLK7 are initiated bacterial thermolysin at 0.4 μg mL^−1 (Sigma‐Aldrich) and stopped by addition of 100 mM EDTA (Sigma‐Aldrich) to obtain active stocks. All enzyme stocks were stored at −20 °C. H‐PFR‐AMC (KLK1), Boc‐VPR‐AMC (KLK5, KLK8, KLK13), Boc‐QAR‐AMC (KLK6, Plasmin), substrates were purchased from Bachem. MeO‐Suc‐RPY‐AMC (KLK7) substrate was purchased from AAT Bioquest. Plasmin (Sigma‐Aldrich) was purchased in mature and active form.
(§2) Compounds were screened on KLKs using a BMG Fluostar microplate reader (black 96‐well microplates). Hit compounds were screened on the selected group of enzymes using optimized concentrations and buffers (KLK1 0.8 nM, KLK4 10 nM, KLK5 0.2 nM; KLK6 1.9 nM; KLK7 6 nM; KLK8 0.2 nM; KLK11 5.2 nM, KLK13 0.47 nM, KLK14 2.5 nM, plasmin 3.3 nM, thrombin 0.1 nM, tissue‐plasminogen activator (tPA) 0.1 nM, matriptase 1 nM, cathepsin L 2 nM) either in absence or prior preincubation in the presence of 100 μM of Fe^3+.
(§3) The proteases are first preincubated for 15 min with each compound (50 and 100 μM) or with DMSO (<2%, negative control) in a total volume of 85 μL of 50 mM Tris buffer, 1 M citrate, 0.05% Brij‐35, pH 7, 37 °C. The reaction is triggered by the appropriate substrate at the optimized concentration in 15 μL of 50 mM Tris buffer, 1 M citrate, 0.05% Brij‐35, pH 8 (H‐PFR‐AMC 100 μM; Boc‐VPR‐AMC 100 μM; Boc‐QAR‐AMC 100 μM; Meo‐Suc‐RPY‐AMC 150 μM, Z‐LR‐AMC 100 μM, Z‐GGR‐AMC 100 μM) and followed for 30 min at 37 °C. […] The release of the AMC fluorescent group is detected using the following wavelengths: λex = 360 nm and λem = 460 nm. The percent inhibition is calculated from Equation (1) where V 0 is the initial rate of the DMSO control, the initial rate in the presence of the inhibitor V i. (1) %inhibition=(1−(vi/v0))×100

KLK7 = KLK7 (Homo sapiens, UniProt P49862); test: Selectivity screening, KLK7; settings: read-out: percentage of inhibition KLK7
Method: as §1
(§4) Compounds were screened on KLKs using a BMG Fluostar microplate reader (black 96‐well microplates). […]
(§5) The proteases are first preincubated for 15 min with each compound (50 and 100 μM) or with DMSO (<2%, negative control) in a total volume of 85 μL of 50 mM Tris buffer, 1 M citrate, 0.05% Brij‐35, pH 7, 37 °C. […] The release of the AMC fluorescent group is detected using the following wavelengths: λex = 360 nm and λem = 460 nm. The percent inhibition is calculated from Equation (1) where V 0 is the initial rate of the DMSO control, the initial rate in the presence of the inhibitor V i. […]

[1] = Calcein transchelation (calcein release) assay; format: physicochemical; settings: calcein 100 nM, 4 h at room temperature; estimation, assay not fully quantitative; read-out: Apparent affinity (pseudo‐affinity constant Kd for Fe3+)
KLK4 = target: T2, KLK4 (Homo sapiens, UniProt Q9Y5K2); test: Selectivity screening, KLK4; format: biochemical; settings: 50 μM compound, without Fe3+; read-out: percentage of inhibition KLK4
T2 construct: purchased R&D Systems

KLK14 = target: T3, KLK14 (Homo sapiens, UniProt Q9P0G3); test: Selectivity screening, KLK14; format: biochemical; settings: 50 μM compound, without Fe3+; read-out: percentage of inhibition KLK14
T3 construct: purchased R&D Systems
T3 sequence (Q9P0G3 25-251): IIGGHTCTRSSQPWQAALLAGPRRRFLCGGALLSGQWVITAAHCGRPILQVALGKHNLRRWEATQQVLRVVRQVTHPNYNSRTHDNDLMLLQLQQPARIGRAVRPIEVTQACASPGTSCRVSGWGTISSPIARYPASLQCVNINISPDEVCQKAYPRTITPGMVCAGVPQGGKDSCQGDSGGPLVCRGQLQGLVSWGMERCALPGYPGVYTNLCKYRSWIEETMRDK

[2] = test system: KLK's of the CNS triad (KLK1‐KLK6‐KLK8); test: Reversibility analysis by dilution after preincubation; format: biochemical, human; settings: 100-fold dilution after 15 min preincubation
Method: Aliquots of reaction mixtures (1 μL) were added to 99 μL of buffer containing the fluorogenic substrate (experimental conditions identical to the routine protocol used for a given enzyme). The mechanism of inhibition was determined by varying substrate and inhibitor concentrations, the type of inhibition and inhibition parameter (Ki or Ki′) are determined by Dixon's plots.

KLK8 = target: T4, KLK8 (Homo sapiens, UniProt O60259); test: KLK8 fluorogenic enzyme inhibition assay (Boc-VPR-AMC); settings: for Ki′ KLK8 / Type of inhibition KLK8: Dixon plot, without Fe3+; for Ki′ KLK8: 100 μM substrate; for inhibition at 50 µM: read-out: percentage of inhibition KLK8
T4 sequence (O60259 33-260): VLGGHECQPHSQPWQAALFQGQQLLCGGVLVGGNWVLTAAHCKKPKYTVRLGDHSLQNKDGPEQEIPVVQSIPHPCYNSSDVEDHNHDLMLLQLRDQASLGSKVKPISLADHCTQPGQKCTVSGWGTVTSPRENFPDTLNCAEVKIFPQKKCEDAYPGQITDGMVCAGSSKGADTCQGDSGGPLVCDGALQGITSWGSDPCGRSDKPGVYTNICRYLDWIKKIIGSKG
Method: (§6) All enzyme stocks were stored at −20 °C and purchased from R&D Systems as proenzymes (KLK6, KLK8, KLK13) or as mature and active forms (KLK5). Activation of KLK6, KLK8, and KLK13 is performed in optimized buffers. The activation reaction is initiated by Lysyl‐Endopeptidase at 2.5 mU mL^−1 (Wako Bioproducts). The activation reaction is stopped by diluting the enzyme to 0.5 μg mL^−1 in assay buffer (50 mM Tris, 1 M Citrate, 0.05% w/v Brij‐35, pH 8) to obtain an active enzyme stock. KLK1 was purchased from R & D Systems as pro‐KLK1. Activation of KLK1 is performed in 50 mM Tris‐HCl, 10 mM CaCl2, 150 mM NaCl, 0.05% Brij‐35, pH 7.5. The activation reaction is initiated by bacterial thermolysin at 0.4 μg mL^−1 (Sigma‐Aldrich) and stopped by addition of 100 mM EDTA (Sigma‐Aldrich) to obtain an active KLK1 stock at the same concentration of 100 μg mL^−1. […] All enzyme stocks were stored at −20 °C. H‐PFR‐AMC (KLK1), Boc‐VPR‐AMC (KLK5, KLK8, KLK13), Boc‐QAR‐AMC (KLK6, Plasmin), substrates were purchased from Bachem. […] Plasmin (Sigma‐Aldrich) was purchased in mature and active form.
as §2, §3
(§7) The equation is entered in the Kaleidagraph 4.5 software for curve fitting f([I]) = % Inhibition, where [I] is the inhibitor concentration.
(§8) The mechanism of inhibition was determined by varying substrate and inhibitor concentrations, the type of inhibition and inhibition parameter (Ki or Ki′) are determined by Dixon's plots.

KLK11 = target: T5, KLK11 (Homo sapiens, UniProt Q9UBX7); test: Selectivity screening, KLK11; format: biochemical; settings: 50 μM compound, without Fe3+; read-out: percentage of inhibition KLK11
T5 construct: purchased R&D Systems
T5 sequence (Q9UBX7 54-282): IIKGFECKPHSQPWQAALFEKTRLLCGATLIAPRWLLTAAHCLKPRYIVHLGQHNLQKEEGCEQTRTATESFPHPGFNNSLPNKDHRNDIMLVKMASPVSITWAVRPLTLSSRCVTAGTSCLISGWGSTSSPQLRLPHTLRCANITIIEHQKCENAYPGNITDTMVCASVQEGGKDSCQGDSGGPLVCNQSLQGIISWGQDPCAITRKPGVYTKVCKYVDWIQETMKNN

[3] = CCK8 cell viability assay, SH-SY5Y; format: cell-based; settings: human, SH-SY5Y neuroblastoma cells, 25 and 50 μM, in absence or presence of iron (100 µM FAC), read-out: percentage of cell viability
Method: (§9) Human neuroblastoma cell line (SH-SY5Y) was purchased at American Type Culture Collection
(§10) Both cell lines were cultured in Dulbecco’s Modified Eagle Medium (DMEM)
(§11) containing 10% heat inactivated fetal bovine serum (FBS), 1% Penicillin/Streptomycin, 10 mM
(§12) Sodium Pyruvate, 2 mM L-Glutamine and 4,5 g/L D-glucose at 37°C, in a 5% humidified
(§13) incubator. Cells were cultivated until 80% confluence in flasks then were plated in 96-well
(§14) plates. For this experiment, SH-SY5Y were used at 10th passage and HMC3 at 13th. SH-SY5Y
(§15) cells were seeded at a density of 3x10^4 cells/well and HMC3 at a density of 10^4 cells/well. After
(§16) seeding, cells were left in complete medium overnight to adhere to the plates. After that, cells
(§17) were treated using inhibitors solubilized in DMSO at stock concentrations of 2,5 mM or 5 mM
(§18) with or without 10 mM iron. Iron solution was prepared by using FAC (Ferric Ammonium
(§19) Citrate, Sigma®) at stock concentration of 25 mM. After 24h of treatment, cell viability was
(§20) assessed with the CCK8 (Cell-Counting Kit 8) from TargetMol. After treatments, 10 µL of CCK8
(§21) reagent was diluted in 90 µL of complete medium and added to each well. After 3 hours at
(§22) 37°C, cell viability was assessed by absorbance measurement at 460 nm. Each viability assay
(§23) is the mean of two independent experiments performed in triplicates.
(§24) treated for 24h with the two selected concentrations of inhibitor (25 µM or 50 µM)
(§25) preincubated or not with 100 µM of FAC. The data are the mean of two independent
experiments performed in triplicates.

[4] = CCK8 cell viability assay, HMC3; format: cell-based; settings: human, HMC3 microglial cells; HMC3, 24h, 25 and 50 μM, in absence or presence of iron (100 µM FAC); read-out: percentage of cell viability
Method: as §9, §10, §11, §12, §13, §14, §15, §16, §17, §18, §19, §20, §21, §22, §23, §24, §25
experiments performed in triplicates.

[5] = test system: targeted KLKs (KLK1, KLK6, KLK8); test: Impact of preincubated compound (50 μM) and Fe3+ (100 μM) on targeted KLKs; format: biochemical, human; settings: compound 50 μM preincubated with Fe3+ 100 μM
Method: Next, we evaluated the impact of preincubated mixtures of each compound at 50 μM and Fe^3+ at 100 μM to model an iron overload condition on targeted KLKs (Figure S5, Supporting Information).

KLK13 = target: T6, KLK13 (Homo sapiens, UniProt Q9UKR3); test: Selectivity screening, KLK13; settings: read-out: percentage of inhibition KLK13
T6 sequence (Q9UKR3 26-277 limits assumed): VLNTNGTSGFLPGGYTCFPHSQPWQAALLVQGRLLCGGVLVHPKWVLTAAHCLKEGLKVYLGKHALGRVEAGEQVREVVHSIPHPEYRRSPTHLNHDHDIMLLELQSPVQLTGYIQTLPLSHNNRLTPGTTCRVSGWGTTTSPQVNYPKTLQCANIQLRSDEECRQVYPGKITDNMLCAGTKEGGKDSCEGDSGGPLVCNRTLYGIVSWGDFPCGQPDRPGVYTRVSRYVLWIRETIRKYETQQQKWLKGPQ
Method: as §1, §2, §3

Plasmin = Plasmin (Homo sapiens, UniProt P00747); test: Selectivity screening, plasmin; settings: read-out: percentage of inhibition Plasmin
Method: All enzyme stocks were stored at −20 °C and purchased from R&D Systems as proenzymes (KLK6, KLK8, KLK13) or as mature and active forms (KLK5). Activation of KLK6, KLK8, and KLK13 is performed in optimized buffers. The activation reaction is initiated by Lysyl‐Endopeptidase at 2.5 mU mL^−1 (Wako Bioproducts). The activation reaction is stopped by diluting the enzyme to 0.5 μg mL^−1 in assay buffer (50 mM Tris, 1 M Citrate, 0.05% w/v Brij‐35, pH 8) to obtain an active enzyme stock. KLK1 was purchased from R & D Systems as pro‐KLK1. Activation of KLK1 is performed in 50 mM Tris‐HCl, 10 mM CaCl2, 150 mM NaCl, 0.05% Brij‐35, pH 7.5. […]
as §4, §5

KLK1 = KLK1 (Homo sapiens, UniProt P06870); test: KLK1 fluorogenic enzyme inhibition assay (H-PFR-AMC); settings: for inhibition at 50 µM: read-out: percentage of inhibition KLK1; for IC50: IC50 KLK1, 15 min preincubation at 37 °C, NI = not a hit (not above 50% inhibition at 50 μM)
Method: as §6, §2, §3, §7, §8

Cathepsin L = Cathepsin L (Homo sapiens, UniProt P07711); test: Selectivity screening, cathepsin L; format: biochemical; settings: 50 μM compound, without Fe3+; read-out: percentage of inhibition Cathepsin L
Thrombin = Thrombin (Homo sapiens, UniProt P00734); test: Selectivity screening, thrombin; format: biochemical; settings: 50 μM compound, without Fe3+; read-out: percentage of inhibition Thrombin
KLK6 = KLK6 (Homo sapiens, UniProt Q92876); test: KLK6 fluorogenic enzyme inhibition assay (Boc-QAR-AMC)
Method: as §6, §2, §3, §7, §8

[6] = UV–vis spectroscopy of Fe3+ chelation and complex stability; format: physicochemical; settings: activity buffer pH 7.4, 1:1 ratio, t = 0 to 240 min
Method: UV–vis analysis of DFX was first performed to monitor the chelation process and the stability of the Fe^3+ complex over time at a 1:1 ratio, typically representing the duration of inhibition assay (30 min to 4 h) (Figure S1, Supporting Information). In these conditions of pH (7.4) and ligand‐to‐iron ratio and according to Steinhauser et al. the main species in solution is assigned to [Fe(DFX)2]^3−.^[ [49] ^] Indeed, we aimed to explore not only the chelation properties but also the impact of the chelated species on enzyme inhibition.
2.c. Chelation properties, iron interactions, and selectivity profiles of selected compounds targeting KLK activity.
Figure S2: Stability of the chelated species as monitored by spectrophotometry. UV/VIS spectra of molecules alone using activity buffer at pH 7.4 (in orange at 500 µM) or in the presence of FeCl3 (ratio of 1:1) at different times (t = 0 in red, 30 min in black, 60 min in blue and 240 min in green). The purple trace corresponds to iron only at 500 µM All data are representative of 2 independent experiments performed in duplicate. […]

T2 sequence (Q9Y5K2 31-254): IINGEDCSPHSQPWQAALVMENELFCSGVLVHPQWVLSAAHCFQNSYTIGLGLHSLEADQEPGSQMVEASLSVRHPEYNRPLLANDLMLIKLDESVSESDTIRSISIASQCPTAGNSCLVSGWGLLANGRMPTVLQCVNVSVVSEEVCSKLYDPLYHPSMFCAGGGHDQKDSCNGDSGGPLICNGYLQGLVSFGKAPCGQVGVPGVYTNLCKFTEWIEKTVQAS
Chain of KLK1 (P06870 25-262): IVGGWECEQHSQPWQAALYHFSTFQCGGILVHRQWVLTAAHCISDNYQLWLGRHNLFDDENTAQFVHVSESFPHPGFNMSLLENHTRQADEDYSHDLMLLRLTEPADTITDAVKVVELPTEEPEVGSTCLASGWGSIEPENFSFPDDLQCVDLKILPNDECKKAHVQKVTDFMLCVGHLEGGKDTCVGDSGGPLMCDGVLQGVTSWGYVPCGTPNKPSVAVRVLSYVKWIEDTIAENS
Chain of KLK7 (P49862 30-253): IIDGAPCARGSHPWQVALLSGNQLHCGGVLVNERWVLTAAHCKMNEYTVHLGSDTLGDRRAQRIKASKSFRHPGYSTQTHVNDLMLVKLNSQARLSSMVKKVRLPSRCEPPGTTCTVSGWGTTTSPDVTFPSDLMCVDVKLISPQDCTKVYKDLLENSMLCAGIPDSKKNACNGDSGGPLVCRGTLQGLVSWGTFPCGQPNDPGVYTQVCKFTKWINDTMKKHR
Chain of Plasmin (P00747 581-810 limits assumed, species assumed): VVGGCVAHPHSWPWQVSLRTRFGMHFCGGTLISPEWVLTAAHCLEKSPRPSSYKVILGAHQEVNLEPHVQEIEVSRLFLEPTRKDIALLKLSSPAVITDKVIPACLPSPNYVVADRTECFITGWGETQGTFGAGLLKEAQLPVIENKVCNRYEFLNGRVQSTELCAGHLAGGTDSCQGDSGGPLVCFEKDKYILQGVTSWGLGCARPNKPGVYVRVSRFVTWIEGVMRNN
Chain of Plasmin (P00747 97-580 partner limits assumed, species assumed): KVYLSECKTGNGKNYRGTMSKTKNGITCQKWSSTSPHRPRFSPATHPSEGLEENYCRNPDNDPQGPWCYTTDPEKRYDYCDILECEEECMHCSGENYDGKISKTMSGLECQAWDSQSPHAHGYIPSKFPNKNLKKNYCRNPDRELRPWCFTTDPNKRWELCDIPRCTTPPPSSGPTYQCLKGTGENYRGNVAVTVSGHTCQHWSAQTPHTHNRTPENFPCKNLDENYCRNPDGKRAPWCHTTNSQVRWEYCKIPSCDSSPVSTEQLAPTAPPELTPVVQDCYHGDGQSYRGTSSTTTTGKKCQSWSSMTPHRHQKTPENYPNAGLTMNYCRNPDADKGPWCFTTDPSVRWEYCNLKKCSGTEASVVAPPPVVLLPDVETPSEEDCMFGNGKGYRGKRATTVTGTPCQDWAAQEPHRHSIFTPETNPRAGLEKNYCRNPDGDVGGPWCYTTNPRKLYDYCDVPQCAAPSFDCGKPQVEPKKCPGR
Chain of Cathepsin L (P07711 114-333, species assumed): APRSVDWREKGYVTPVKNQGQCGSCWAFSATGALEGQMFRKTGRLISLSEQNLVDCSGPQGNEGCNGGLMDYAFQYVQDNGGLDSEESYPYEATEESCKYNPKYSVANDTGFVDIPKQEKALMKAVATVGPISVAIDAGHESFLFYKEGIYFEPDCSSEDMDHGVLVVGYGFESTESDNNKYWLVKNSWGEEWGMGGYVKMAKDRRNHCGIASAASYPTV

O=C(O)c1cccc(-n2nc(-c3ccccc3O)nc2-c2ccccc2O)c1 [3b]
inhibition at 50 µM (KLK5): 98.1% | inhibition at 50 µM (KLK7): 88.1% | Kd [1]: 0.063 ± 0.011 nM | inhibition at 50 µM (KLK4): 83.8% | inhibition at 50 µM (KLK14): 95.1% | reversibility and time dependence of inhibition [2]: reversible and time‐independent inhibitors | IC50 (KLK8): 21.4 ± 0.4 µM | Ki′ KLK8 (KLK8): 18 µM | Type of inhibition KLK8 (KLK8): Uncompetitive | inhibition at 50 µM (KLK8): 62.1% | inhibition at 50 µM (KLK11): 90.9% | viability at 24 h [3]: > 80% | viability at 24 h [4]: > 80%

CC(C)(C)n1nc(-c2ccccc2O)nc1-c1ccccc1O [3d]
Kd [1]: 2.15 ± 0.11 nM | IC50 (KLK8): > 50 µM | change of inhibitory activity in the presence of iron [5]: do not show an increased inhibitory activity in the presence of iron

O=C(NC(Cc1c[nH]c2ccccc12)C(=O)O)c1ccc(-n2nc(-c3ccccc3O)nc2-c2ccccc2O)cc1 (stereo not drawn) [3lb]
inhibition at 50 µM (KLK5): 98.2% | inhibition at 50 µM (KLK7): 90.5% | inhibition at 50 µM (KLK4): 99.7% | inhibition at 50 µM (KLK13): 98.1% | inhibition at 50 µM (KLK14): 98.8% | inhibition at 50 µM (Plasmin): 60.5% | inhibition at 50 µM (KLK1): 90.1% | reversibility and time dependence of inhibition [2]: reversible and time‐independent inhibitors | IC50 (KLK8): 27.1 ± 1.1 µM | Ki (KLK8): 12 µM | inhibition at 50 µM (KLK8): 50.2% | inhibition at 50 µM (KLK11): 81.4% | viability at 24 h [3]: > 80% | viability at 24 h [4]: > 80% | inhibition at 50 µM (Cathepsin L): < 50%

O=C(O)C1CCCN1C(=O)c1ccc(-n2nc(-c3ccccc3O)nc2-c2ccccc2O)cc1 (stereo not drawn) [3mb]
inhibition at 50 µM (KLK5): 95.1% | inhibition at 50 µM (KLK7): 70.1% | Kd [1]: 0.029 ± 0.017 nM | inhibition at 50 µM (KLK4): 77.3% | inhibition at 50 µM (KLK13): 85.2% | inhibition at 50 µM (KLK14): 89.7% | reversibility and time dependence of inhibition [2]: reversible and time‐independent inhibitors | IC50 (KLK8): 25.9 ± 0.7 µM | Ki′ KLK8 (KLK8): 25 µM | Type of inhibition KLK8 (KLK8): uncompetitive inhibition | inhibition at 50 µM (KLK8): 63.1% | inhibition at 50 µM (Thrombin): 61.1% | inhibition at 50 µM (KLK11): 76.7% | viability at 24 h [3]: > 80% | viability at 24 h [4]: > 80%

Oc1ccc(-n2nc(-c3ccccc3O)nc2-c2ccccc2O)cc1 [3r]
inhibition at 50 µM (KLK5): 85.5% | Kd [1]: 0.062 ± 0.014 nM | inhibition at 50 µM (KLK6; read-out: percentage of inhibition KLK6): < 50% | inhibition at 50 µM (KLK4): 84.3% | inhibition at 50 µM (KLK13): 98.3% | inhibition at 50 µM (KLK14): 62.2% | Ki (KLK1): 29 µM | Type of inhibition KLK1 (KLK1; Dixon plot, without Fe3+): Noncompetitive | IC50 (KLK1): 16.4 ± 1.3 µM | inhibition at 50 µM (KLK1): 79.1% | reversibility and time dependence of inhibition [2]: reversible and time‐independent inhibitors | IC50 (KLK8): > 50 µM | inhibition at 50 µM (Thrombin): < 50% | viability at 24 h [3]: > 80% | viability at 24 h [4]: > 80%

CC(=O)Oc1ccccc1-c1nc(-c2ccccc2OC(C)=O)n(-c2ccc(C(=O)O)cc2)n1 [compound 22]
IC50 (KLK6): > 50 µM | IC50 (KLK1): > 50 µM | UV–vis spectrum in the presence of FeCl3 (iron complex formation) [6]: no changes in the absorption spectra | IC50 (KLK8): > 50 µM | change of inhibitory activity in the presence of iron [5]: do not show an increased inhibitory activity in the presence of iron
